Results taken from patent US20210085640A1, “ACYLATED CATECHIN POLYPHENOLS AND METHODS OF THEIR USE FOR THE TREATMENT OF CANCER” (Flagship Pioneering Innovations V, Inc., priority 2018, published 2021).
pIC50: −log10 of the molar value.

Tests used:
Type in all cases: cell-based
AGS stomach cancer cells = assay: Cancer cell survival (CellTiter-Glo), AGS
Method in brief: (§1)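 Log-phase cells are plated at 4×10^3 per well and incubated overnight. Compounds, prepared in media as 10× solutions, are then added and the plates held 72 h at 37 C. Viability is measured by CellTiter-Glo luminescence, and IC50 is derived from survival relative to untreated controls.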

A549 lung cancer cells = assay: Cancer cell survival (CellTiter-Glo), A549; conditions: Homo sapiens, 72 h
Method in brief: as §1

T24 bladder cancer cells = assay: Cancer cell survival (CellTiter-Glo), T24; conditions: Homo sapiens
Method in brief: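 T24 cells seeded at 4×10^3 cells/well overnight, then exposed 72 h at 37 C, 5% CO2 to nine concentrations in triplicate. Survival measured by CellTiter-Glo luminescence relative to untreated and medium controls; IC50 derived.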

[1] = Human Regulatory T Cell Differentiation Assay; conditions: human, primary naïve CD4+ T cells isolated from PBMCs, 1 uM, read-out: Cell viability % DMSO
Method in brief: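 Naïve CD4+ T cells isolated from healthy-donor PBMCs, cultured 6 days with 5 ng/ml TGF-β, 100 U/ml IL-2 and CD3/CD28/CD2 activator, with or without compound. Flow cytometry of live cells; Tregs as CD4+CD25+FOXP3+ percentage of total CD4+ T cells, compared by one-way ANOVA.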

[2] = test system: PC-3 prostate cancer cells; assay: Cancer cell survival (CellTiter-Glo), PC-3; conditions: Homo sapiens, PC-3 cells, 72 h
Method in brief: as §1

[3] = test system: HCT 116 colorectal cancer cells; assay: Cancer cell survival (CellTiter-Glo), HCT 116; conditions: Homo sapiens, HCT 116 cells, 72 h
Method in brief: as §1

[4] = test system: Daudi lymphoma cancer cells; assay: Cancer cell survival (CellTiter-Glo), Daudi; conditions: Homo sapiens, 72 h
Method in brief: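 Daudi cells (4×10^3/well) were exposed for 72 h at 37 °C to nine concentrations of compound, added as 10× solutions spanning 1 μM–10 mM (fatty acids) or 100 nM–1 mM (others). CellTiter-Glo luminescence gave % survival versus untreated, medium-blank corrected; IC50 derived.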

MCF7 breast cancer cells = assay: Cancer cell survival (CellTiter-Glo), MCF7; conditions: Homo sapiens, 72 h
Method in brief: as §1

A-431 skin cancer cells = assay: Cancer cell survival (CellTiter-Glo), A-431; conditions: Homo sapiens, A-431 cells, 72 h
Method in brief: as §1

[5] = 101 nM, read-out: Cell survival at given concentration
[6] = 318 nM, read-out: Cell survival at given concentration
[7] = 1 μM, read-out: Cell survival at given concentration
[8] = 3 μM, read-out: Cell survival at given concentration
[9] = 10 μM, read-out: Cell survival at given concentration
[10] = 32 μM, read-out: Cell survival at given concentration
[11] = 100 μM, read-out: Cell survival at given concentration
[12] = 316 μM, read-out: Cell survival at given concentration
[13] = 1000 μM, read-out: Cell survival at given concentration

Oc1ccc(C=Cc2cc(O)cc(O)c2)cc1 [resveratrol]
viability at 0.101 µM (AGS stomach cancer cells; 72 h, 101 nM, read-out: Cell survival at given concentration): 100% | viability at 0.318 µM (AGS stomach cancer cells; 72 h, 318 nM, read-out: Cell survival at given concentration): 95% | viability at 1 µM (AGS stomach cancer cells; 72 h, 1 μM, Table 10.1, read-out: Cell survival at given concentration): 101% | viability at 3 µM (AGS stomach cancer cells; 72 h, 3 μM, Table 10.1, read-out: Cell survival at given concentration): 98% | viability at 10 µM (AGS stomach cancer cells; 72 h, 10 μM, Table 10.1, read-out: Cell survival at given concentration): 100% | viability at 32 µM (AGS stomach cancer cells; 72 h, 32 μM, Table 10.1, read-out: Cell survival at given concentration): 101% | viability at 100 µM (AGS stomach cancer cells; 72 h, 100 μM, Table 10.1, read-out: Cell survival at given concentration): 94% | viability at 316 µM (AGS stomach cancer cells; 72 h, 316 μM, read-out: Cell survival at given concentration): 33% | viability at 1000 µM (AGS stomach cancer cells; 72 h, 1000 μM, read-out: Cell survival at given concentration): 0% | pIC50 (AGS stomach cancer cells; Table 10.1): 3.60 | viability at 0.101 µM (A549 lung cancer cells; [5]): 98% | viability at 0.318 µM (A549 lung cancer cells; [6]): 99% | viability at 1 µM (A549 lung cancer cells; [7]): 98% | viability at 3 µM (A549 lung cancer cells; [8]): 98% | viability at 10 µM (A549 lung cancer cells; [9]): 98% | viability at 32 µM (A549 lung cancer cells; [10]): 96% | viability at 100 µM (A549 lung cancer cells; [11]): 88% | viability at 316 µM (A549 lung cancer cells; [12]): 50% | viability at 1000 µM (A549 lung cancer cells; [13]): 0% | pIC50 (A549 lung cancer cells; Table 7.1): 3.50 | viability at 0.101 µM (T24 bladder cancer cells; T-24, 101 nM, 72 h, read-out: Cell survival at given concentration): 100% | viability at 0.318 µM (T24 bladder cancer cells; T-24, 318 nM, 72 h, read-out: Cell survival at given concentration): 102% | viability at 1 µM (T24 bladder cancer cells; T-24, 1 μM, 72 h, read-out: Cell survival at given concentration): 100% | viability at 3 µM (T24 bladder cancer cells; T-24, 3 μM, 72 h, read-out: Cell survival at given concentration): 101% | viability at 10 µM (T24 bladder cancer cells; T-24, 10 μM, 72 h, read-out: Cell survival at given concentration): 92% | viability at 32 µM (T24 bladder cancer cells; T-24, 32 μM, 72 h, read-out: Cell survival at given concentration): 1% | viability at 100 µM (T24 bladder cancer cells; T-24, 100 μM, 72 h, read-out: Cell survival at given concentration): 0% | viability at 316 µM (T24 bladder cancer cells; T-24, 316 μM, 72 h, read-out: Cell survival at given concentration): 0% | viability at 1000 µM (T24 bladder cancer cells; T-24, 1000 μM, 72 h, read-out: Cell survival at given concentration): 0% | pIC50 (T24 bladder cancer cells; T-24, 72 h, Table 3.1, read-out: 1050): 4.82 | viability at 6 days, 1 µM [1]: < 90% | viability at 0.101 µM [2, 5]: 101% | viability at 0.318 µM [2, 6]: 102% | viability at 1 µM [2, 7]: 101% | viability at 3 µM [2, 8]: 102% | viability at 10 µM [2, 9]: 103% | viability at 32 µM [2, 10]: 96% | viability at 100 µM [2, 11]: 95% | viability at 316 µM [2, 12]: 32% | viability at 1000 µM [2, 13]: 0% | pIC50 ([2]; Table 8.1): 3.60 | viability at 0.101 µM [3, 5]: 103% | viability at 0.318 µM [3, 6]: 98% | viability at 1 µM [3, 7]: 98% | viability at 3 µM [3, 8]: 101% | viability at 10 µM [3, 9]: 98% | viability at 32 µM [3, 10]: 65% | viability at 100 µM [3, 11]: 0% | viability at 316 µM [3, 12]: 0% | viability at 1000 µM [3, 13]: 0% | pIC50 ([3]; Table 6.1): 4.43 | viability at 0.101 µM [4, 5]: 100% | viability at 0.318 µM [4, 6]: 101% | viability at 1 µM [4, 7]: 102% | viability at 3 µM [4, 8]: 102% | viability at 10 µM [4, 9]: 101% | viability at 32 µM [4, 10]: 14% | viability at 100 µM [4, 11]: 0% | viability at 316 µM [4, 12]: 0% | viability at 1000 µM [4, 13]: 0% | pIC50 ([4]; Table 4.1): 4.62 | viability at 0.101 µM (MCF7 breast cancer cells; [5]): 94% | viability at 0.318 µM (MCF7 breast cancer cells; [6]): 96% | viability at 1 µM (MCF7 breast cancer cells; [7]): 99% | viability at 3 µM (MCF7 breast cancer cells; [8]): 99% | viability at 10 µM (MCF7 breast cancer cells; [9]): 95% | viability at 32 µM (MCF7 breast cancer cells; [10]): 96% | viability at 100 µM (MCF7 breast cancer cells; [11]): 85% | viability at 316 µM (MCF7 breast cancer cells; [12]): 27% | viability at 1000 µM (MCF7 breast cancer cells; [13]): 0% | pIC50 (MCF7 breast cancer cells; Table 5.1): 3.67 | viability at 0.101 µM (A-431 skin cancer cells; [5]): 101% | viability at 0.318 µM (A-431 skin cancer cells; [6]): 101% | viability at 1 µM (A-431 skin cancer cells; [7]): 102% | viability at 3 µM (A-431 skin cancer cells; [8]): 102% | viability at 10 µM (A-431 skin cancer cells; [9]): 98% | viability at 32 µM (A-431 skin cancer cells; [10]): 87% | viability at 100 µM (A-431 skin cancer cells; [11]): 65% | viability at 316 µM (A-431 skin cancer cells; [12]): 13% | viability at 1000 µM (A-431 skin cancer cells; [13]): 0% | pIC50 (A-431 skin cancer cells; Table 9.1): 3.88
